Results on 20 compounds are retold here after US11236083B2, “Compounds and pharmaceutical compositions for modulating SGK activity, and methods thereof” (NEW ERA PHARMA, INC., priority 2016, dated 2022).

For one data set, the target named is T1, Sgk3 (Homo sapiens, UniProt Q96BR1).
T1 sequence (Q96BR1 1-496): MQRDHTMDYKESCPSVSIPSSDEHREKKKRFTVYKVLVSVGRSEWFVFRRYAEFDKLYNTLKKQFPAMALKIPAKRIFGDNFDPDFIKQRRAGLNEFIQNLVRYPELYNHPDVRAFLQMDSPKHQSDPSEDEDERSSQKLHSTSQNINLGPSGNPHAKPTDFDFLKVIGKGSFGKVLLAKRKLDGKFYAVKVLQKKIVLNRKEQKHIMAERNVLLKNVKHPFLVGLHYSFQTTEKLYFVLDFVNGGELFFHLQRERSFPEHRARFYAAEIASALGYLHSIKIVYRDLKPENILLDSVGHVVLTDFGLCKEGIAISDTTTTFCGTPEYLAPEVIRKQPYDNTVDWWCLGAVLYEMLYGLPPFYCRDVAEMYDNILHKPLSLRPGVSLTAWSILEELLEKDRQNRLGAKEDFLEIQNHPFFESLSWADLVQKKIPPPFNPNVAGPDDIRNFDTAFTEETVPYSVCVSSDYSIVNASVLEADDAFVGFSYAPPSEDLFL
As to the kind of experiment: Enzyme based assay for SGK3. The data set is classed as biochemical. Here is the method:
(§1) 1. Enzyme Based Assays for SGK1, SGK2, SGK3, and Akt1
(§2) The kinase enzymatic reaction is carried out with a biotinylated Akt Substrates-2 peptide substrate. The phosphorylated substrate is then detected using a specific anti-phospho peptide antibody which is coupled with Eu^3+ Cryptate and XL665 conjugated with streptavidin.
(§3) Exemplary Assay Conditions
(§4) • Enzyme: ˜0.1 nM • Substrate: 0.2 μM • ATP: 50 μM and 1 mM • Mg^2+: 10 mM • Reaction time: 60 min with 50 μM ATP and 30 min with 1 mM ATP • SA-XL to Biotin: 1:10
(§5) Detailed Steps • 1. prepare the enzyme and substrate solution with the buffer from Cisbio • 2. add the enzyme and substrate solution to the diluted compound plate • 3. transfer 5 μL of compound, enzyme, and substrate mixture to an 384-well assay plate • 4. add 5 μL ATP (with Mg^2+) solution to initiate the reaction • 5. after certain time, add 10 μL of stop solution containing SA-XL and specific antibody • 6. read the plate after 2 h incubation at rt • 7. process the data using prizm software (Exemplary results are shown in FIG. 1.) 2. PK Studies Protocol

Another data set has as its target T2, Sgk2 (Homo sapiens, UniProt Q9HBY8).
T2 sequence (Q9HBY8 1-367): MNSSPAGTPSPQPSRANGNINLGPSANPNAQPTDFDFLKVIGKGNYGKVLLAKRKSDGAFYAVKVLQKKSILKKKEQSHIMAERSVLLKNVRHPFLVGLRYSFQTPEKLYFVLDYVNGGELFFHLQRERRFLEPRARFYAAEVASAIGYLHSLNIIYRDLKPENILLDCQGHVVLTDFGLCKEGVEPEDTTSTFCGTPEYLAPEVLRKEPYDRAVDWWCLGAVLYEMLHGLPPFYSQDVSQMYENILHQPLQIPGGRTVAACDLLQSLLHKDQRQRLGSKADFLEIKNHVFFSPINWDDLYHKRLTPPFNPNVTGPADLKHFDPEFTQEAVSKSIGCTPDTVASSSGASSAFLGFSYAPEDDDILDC
As to the kind of experiment: Enzyme based assay for SGK2 (biotinylated Akt Substrates-2 peptide, Eu3+ Cryptate/XL665 detection). The data set is classed as biochemical. The method, then: as §1, §2, §3, §4, §5

The next data set deals with T3, Sgk1 (Homo sapiens, UniProt O00141).
T3 sequence (O00141 1-431): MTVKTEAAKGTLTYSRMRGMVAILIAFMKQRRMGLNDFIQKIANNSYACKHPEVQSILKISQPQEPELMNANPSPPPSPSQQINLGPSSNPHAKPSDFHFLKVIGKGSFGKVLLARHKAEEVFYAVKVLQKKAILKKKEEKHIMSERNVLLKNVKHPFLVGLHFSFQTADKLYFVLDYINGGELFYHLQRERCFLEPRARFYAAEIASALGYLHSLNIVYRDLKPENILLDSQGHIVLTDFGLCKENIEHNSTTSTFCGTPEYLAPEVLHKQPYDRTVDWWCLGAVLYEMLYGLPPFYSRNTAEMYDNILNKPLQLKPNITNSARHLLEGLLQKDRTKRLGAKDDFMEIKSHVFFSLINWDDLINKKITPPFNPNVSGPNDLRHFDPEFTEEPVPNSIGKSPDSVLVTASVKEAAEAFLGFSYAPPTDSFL
As to the kind of experiment: Enzyme based assay for SGK1 (biotinylated Akt Substrates-2 peptide, Eu3+ Cryptate/XL665 detection). Type of data set: biochemical. The method, then: as §1, §2, §3, §4, §5

For a further data set, the system named is HeLa. As to the kind of experiment: HeLa cell testing (Table 2). The data set is classed as cell-based. Particulars: Homo sapiens; HeLa cells.
In the next data set the test system is 293T. As to the kind of experiment: 293T cell testing (Table 2). Type of data set: cell-based. Particulars: Homo sapiens, HEK-293T; 293T cells.
Another data set deals with 293T_O. Nature of the data set: 293T_O cell testing (Table 2). The data set is classed as cell-based. Conditions: 293T_O cells.
Data set [1] can be described thus: PK study in male ICR mice, intravenous and oral administration, plasma concentration. Type of data set: in vivo. Particulars: for MRT inf: read-out: MRT(0-∞). The text has this:
3 Male mice/group, 8 groups total with Intravenous and Oral Administration, then measure the compound concentration in plasma.
Selected Pharmacokinetics Parameters of Compound N in Male ICR Mice Following Intravenous and Oral Administration

Setting [2] is: 50 μM ATP, read-out: Sgk2 (50 μM ATP).
[3] abbreviates: 1 mM ATP, read-out: Sgk2 (1 mM ATP).
Setting [4] is: 50 μM ATP, read-out: Sgk1 (50 μM ATP).
[5] abbreviates: 1 mM ATP, read-out: Sgk1 (1 mM ATP).

Read-outs that look alike come from different tables or passages of the source. A value given as a limit tells only on which side of the number the result lay.

In the case of `COc1ccc(F)c(S(=O)(=O)Nc2ccc(-c3cc(CCC4CNCCO4)c4cn[nH]c4c3)cc2)c1` (stereo not shown), the IC50 came out at 150 nM against Sgk3; 4.1 nM on Sgk2 (setting [2]); 8.2 nM on Sgk2 (setting [3]); 3.2 nM on Sgk1 (setting [4]); 11.6 nM at Sgk1 (setting [5]).
For `COc1ccc(F)c(S(=O)(=O)Nc2ccc(-c3cc(NCC4CNCCO4)c4cn[nH]c4c3)cc2)c1` (stereo not shown) the same measures were 150 nM, 1.7 nM, 6.6 nM, 1.9 nM and 12.4 nM.
In the case of `COc1ccc(F)c(S(=O)(=O)Nc2ccc(-c3cc(OCCO)c4c(N)n[nH]c4c3)cc2)c1`, the IC50 at Sgk3 stood at 90 nM; on Sgk2 (setting [2]), 7.9 nM; on Sgk2 (setting [3]), 6.2 nM; on Sgk1 (setting [4]), 5.1 nM; at Sgk1 (setting [5]) it was 7.7 nM.
The like results for `CCOc1cc(-c2ccc(NS(=O)(=O)c3cc(OC)ccc3F)cc2)cc2[nH]nc(N)c12` were, in that order, 130 nM, 12.3 nM, 29.9 nM, 11.8 nM and 2 nM.
Turning to `COCCOc1cc(-c2ccc(NS(=O)(=O)c3cc(OC)ccc3F)cc2)cc2[nH]nc(N)c12`, the IC50 at Sgk3 is 100 nM; on Sgk2 (setting [2]) it was 8 nM; on Sgk2 (setting [3]), 21.3 nM; on Sgk1 (setting [4]), 27.7 nM; at Sgk1 (setting [5]) it was 92.8 nM.
On to `COc1ccc(F)c(S(=O)(=O)Nc2ccc(-c3cc(O[C@@H]4CCOC4)c4c(N)n[nH]c4c3)nc2)c1`, for which the IC50 on Sgk2 (setting [2]) came to 4 nM; on Sgk2 (setting [3]), 36 nM; on Sgk1 (setting [4]), 8.5 nM; on Sgk1 (setting [5]) it was 10.3 nM.
On to `O=S(=O)(Nc1ccc(-c2ccc3cn[nH]c3n2)cc1)c1cc(Cl)ccc1F`, for which the IC50 at Sgk2 (setting [2]) came out at 5.9 nM; at Sgk2 (setting [3]), 169 nM; in the data set on HeLa, 2170 nM; on Sgk1 (setting [4]), 97.9 nM; at Sgk1 (setting [5]), 77 nM.
The like results for `COc1ccc(F)c(S(=O)(=O)Nc2ccc(-c3ccc4cn[nH]c4n3)cc2)c1` were, in that order, 1.8 nM, 66 nM, over 50000 nM, 5.2 nM and 150 nM.
Regarding `Nc1n[nH]c2nc(-c3ccc(NS(=O)(=O)c4cc(Cl)ccc4F)cc3)ccc12`, the IC50 was 21.8 nM at Sgk2 (setting [2]); 569 nM on Sgk2 (setting [3]); 20100 nM with HeLa; 238 nM on Sgk1 (setting [4]); over 2000 nM at Sgk1 (setting [5]).
The like results for `O=S(=O)(Nc1ccc(-c2ccc3cn[nH]c3c2)cc1)c1cc(Cl)ccc1F` were, in that order, 32.1 nM, 664 nM, 2470 nM, 124 nM and 352 nM.
As for `COc1ccc(F)c(S(=O)(=O)Nc2ccc(-c3cc4[nH]ncc4cn3)cc2)c1`, the IC50 at Sgk2 (setting [2]) is 9.7 nM; at Sgk2 (setting [3]), over 200 nM; at Sgk1 (setting [4]), 160 nM; on Sgk1 (setting [5]), over 200 nM.
`COc1ccc(F)c(S(=O)(=O)Nc2ccc(-c3ccc4c(N)n[nH]c4c3)cc2)c1`: the IC50 at Sgk2 (setting [2]) was 6.1 nM; on Sgk2 (setting [3]), 16 nM; in the data set on HeLa it was 13700 nM; at Sgk1 (setting [4]), 10.9 nM; at Sgk1 (setting [5]), 35.8 nM; with 293T, 56100 nM. This compound also displayed an IC50 in the data set with 293T_O of 47100 nM.
Regarding `COc1ccc(Cl)c(S(=O)(=O)Nc2ccc(-c3ccc4c(N)n[nH]c4n3)cc2)c1`, the IC50 on Sgk2 (setting [2]) amounted to 2.1 nM; at Sgk2 (setting [3]), 65.1 nM; in the data set on HeLa, 21900 nM; at Sgk1 (setting [4]), 12.6 nM; on Sgk1 (setting [5]), 67.7 nM; with 293T it was 60700 nM. For the same compound, in the data set with 293T_O, the IC50 worked out at 45500 nM.
On to `COc1ccc(F)c(S(=O)(=O)Nc2ccc(-c3ccc4c(N)n[nH]c4c3)nc2)c1` [Compound N, N-(6-(3-amino-1H-indazol-6-yl)pyridin-3-yl)-2-fluoro-5-methoxybenzenesulfonamide], for which, in data set [1] (IV (2 mg/kg)), the CLz worked out at 0.17 mL/min/kg and the t1/2z is 6.99 h. The compound further displayed a t1/2z in data set [1] (PO (20 mg/kg)) of 17.27 h. In data set [1] (PO (20 mg/kg), F is calculated from AUC(0-t)), the F was 63.37%. Moreover, in data set [1] (mouse, plasma, IV (2 mg/kg)), the AUC(0-inf) worked out at 165 µg·h/mL, the AUC(0-t) was 151 µg·h/mL, the Cmax was found to be 29.1 µg/mL and the Tmax came to 0.08 h. In addition, the MRT inf in data set [1] (mouse, plasma, IV (2 mg/kg)) is 8.84 h. Also, the Vd in data set [1] (mouse, plasma, IV (2 mg/kg), read-out: Vz) worked out at 0.12 L/kg. Further, in data set [1] (mouse, plasma, PO (20 mg/kg)), the AUC(0-inf) was found to be 1530 µg·h/mL, the AUC(0-t) came out at 957 µg·h/mL, the peak level (Cmax) was 71.9 µg/mL and the Tmax was 0.25 h. Further, the MRT inf in data set [1] (mouse, plasma, PO (20 mg/kg)) came out at 24.1 h.
Turning to `COc1ccc(F)c(S(=O)(=O)Nc2ccc(-c3cc4[nH]ncc4c(OCC4CNCCO4)n3)cc2)c1` (stereo not shown) [drawing 105], the IC50 on Sgk3 turned out to be 100 nM; on Sgk2 (setting [2]), 1.6 nM; on Sgk2 (setting [3]) it was 10 nM; at Sgk1 (setting [4]) it was 1.3 nM; at Sgk1 (setting [5]), 13.4 nM.
For `COc1ccc(F)c(S(=O)(=O)Nc2ccc(-c3cc(OC)c4c(N)n[nH]c4c3)cc2)c1` [drawing 108] the same measures were 40 nM, 5.1 nM, 8.9 nM, 2.4 nM and 17.8 nM.
For `COc1ccc(F)c(S(=O)(=O)Nc2ccc(-c3cc4[nH]nc(N)c4c(C)n3)cc2)c1` [drawing 110] the same measures were 50 nM, 3.1 nM, 5.3 nM, 10.6 nM and 8.5 nM.
The like results for `COc1ccc(F)c(S(=O)(=O)Nc2ccc(-c3cc(C)c4c(N)n[nH]c4n3)cc2)c1` [drawing 111] were, in that order, 30 nM, 4.1 nM, 3.7 nM, 2.8 nM and 5.5 nM.
In the case of `COc1ccc(F)c(S(=O)(=O)Nc2ccc(-c3ccc4c(N)n[nH]c4n3)cc2)c1` [drawing 140], the IC50 on Sgk3 turned out to be 70 nM; on Sgk2 (setting [2]) it was 2 nM; at Sgk2 (setting [3]), 6.5 nM; in the data set on HeLa it was 21400 nM; on Sgk1 (setting [4]) it was 2.9 nM; on Sgk1 (setting [5]), 6.5 nM.
With `COc1ccc(F)c(S(=O)(=O)Nc2ccc(-c3ccc4c(N)n[nH]c4c3)nc2)c1` [drawing 151], the IC50 at Sgk2 (setting [2]) turned out to be 4.6 nM; at Sgk2 (setting [3]), 20.8 nM; at Sgk1 (setting [4]), 25 nM; on Sgk1 (setting [5]), 158 nM.

As a reminder, the AUC(0-inf) is the area under the concentration-time curve extrapolated to infinity. Higher therefore signals more exposure. Broadly, the AUC(0-t) is the area under the concentration-time curve up to a stated or last time point. In general, Cmax refers to the peak of the concentration-time curve. Usually Tmax stands for the time at which the peak concentration occurs.
